Results taken from patent publication US7049071B2, “Detection of DNA damaging agents” (University of Manchester Institute of Science and Technology, priority 1997, dated 2006).
Several values for one entry are separate records, joined by “and”; a condition that tells them apart may be missing. Equal values may be shown once.

Legend:
Assay type in all cases: cell-based, Saccharomyces cerevisiae
RAD54 promoter [1] = experiment: Specificity experiment: GFP reporter induction by agents that delay mitosis; conditions: transformed cells; concentration that inhibited cell growth to a similar extent to the MMS treatment regime
From the text: These experiments involved exposing transformed cells to hydroxyurea and nocodazole which can delay mitosis in different ways. Hydroxyurea interferes with DNA synthesis at two levels: it inhibits ribonucleotide reductase, so limiting the supply of precursors for DNA synthesis, and it inhibits DNA ligase, an enzyme responsible for repairing nicks (single strand breaks) in the DNA backbone. In contrast nocodazole inhibits microtubule formation and thus primarily arrests cell growth by preventing the normal segregation of chromosomes during mitosis.

RAD54 promoter [2] = experiment: Whole cell GFP fluorescence of FF18984 transformed with yEGFP-444 or pWDH444; conditions: for Brightness (BU) + MMS, average: average of three; for Brightness (BU) + MMS: single measurements
Procedure: A stationary phase culture of cells grown in SD medium was used as the inoculum source. Aliquots (30 μl) of cells were inoculated into 3 ml of SD in 15 ml test tubes. Half of the tubes were then supplemented with 0.01% MMS (the remaining tubes left as controls). The tubes were incubated at 25° C. for 16 h on an orbital shaker at 120 rpm, then transferred to an ice-box whilst maintaining agitation. The cells were then transferred to 1.5 ml eppendorf tubes, harvested by centrifugation (10 s), washed twice in sterile distilled water, and resuspended in 250 μl extraction buffer.
(§1) For whole cell fluorescent measurements, the washed cells were transferred directly to cuvettes containing 2.75 ml sterile distilled water.
Fluorescence measurements were performed with a Perkin Elmer LS50 Fluorescence Spectrometer. The excitation and emission wavelengths were set to 488nm and 511 nm, respectively, with a slit width of 10 nm. To correct for variations in cell number/protein extraction efficiency, light absorption was recorded for each cuvette at either 600 nm (for whole cells) or 280 nm (for extracts). The fluorescence values obtained from the fluorometer were then divided by the absorption readings to give the “brightness value”, an arbitrary unit independent of sample concentration. Other data handling details are dealt with either in the text or in the
The assessment of GFP fluorescence in whole cells was performed essentially as described in 1.2 (above).

RAD54 promoter [3] = experiment: Fluorescence assay of yeast transformed with pWDH443 or pWDH444 (RAD54 promoter linked to S65T GFP), whole cells or cell extracts
Procedure: Light emitted by GFP at 511 nm (after excitation at 488 nm) from yeast cells transformed with pWDH443 and pWDH444 and expressing GFP was measured in a fluorimeter in the absence (controls) or presence of compounds known to induce DNA damage such as Methyl Methane Sulphonate (MMS). Samples were assayed as whole cells or as cell extracts.
Yeast strains Y485 and Y486 in haploid form or Y485/486 in diploid form were in this Example (see above).
A stationary phase culture of cells grown in SD medium was used as the inoculum source. Aliquots (30 μl) of cells were inoculated into 3 ml of SD in 15 ml test tubes. […] The tubes were incubated at 25° C. for 16 h on an orbital shaker at 120 rpm, then transferred to an ice-box whilst maintaining agitation. The cells were then transferred to 1.5 ml eppendorf tubes, harvested by centrifugation (10 s), washed twice in sterile distilled water, and resuspended in 250 μl extraction buffer.
as §1
For cell extract studies, 100μl of 400–600nm diameter glass beads were added to the tubes of cells which were then placed in a BIO 101 Fastprep FP120 to mechanically disrupt the cells. Following centrifugation for 30 s, the supernatant was transferred to a clean tube. The pellet of beads was washed in a further 250 μl of extraction buffer and this was added to the supernatant from the previous extraction. 200 μl of the pooled extract in 300 μl of water was then transferred to a cuvette.
Fluorescence measurements were performed with a Perkin Elmer LS50 Fluorescence Spectrometer. The excitation and emission wavelengths were set to 488nm and 511 nm, respectively, with a slit width of 10 nm. To correct for variations in cell number/protein extraction efficiency, light absorption was recorded for each cuvette at either 600 nm (for whole cells) or 280 nm (for extracts). The fluorescence values obtained from the fluorometer were then divided by the absorption readings to give the “brightness value”, an arbitrary unit independent of sample concentration. Other data handling details are dealt with either in the text or in the […]

RAD54 promoter [4] = experiment: Western blot of yeast protein extracts with anti-GFP antibody; conditions: yeast cells transformed with pWDH443 or pWDH444, induced with MMS
From the text: Protein extracts from untransformed yeast cells and yeast cells transformed with both pWDH443 and pWDH444 were used in a Western blot analysis using anti-GFP antibody. GFP was not detected in untransformed cells and was only detected at low levels in uninduced transformed cells.

[5] = FF18984 transformed with pWDH444, whole cells
[6] = FF18984 transformed with yEGFP-444, whole cells

Row | SMILES | Induction of the GFP reporter gene (RAD54 promoter [1]) | Brightness (BU) + MMS, average (RAD54 promoter [2]; [5]) | Brightness (BU) + MMS (RAD54 promoter [2]; [5]) | Brightness (BU) + MMS, average (RAD54 promoter [2]; [6]) | Brightness (BU) + MMS (RAD54 promoter [2]; [6]) | Time after induction at which fluorescence began to increase (RAD54 promoter [3]; 0.05% MMS) | Change in fluorescence (FIG. 10) (RAD54 promoter [3]; haploid Y486 transfected with pWDH444, cell extracts, 0.02% MMS) | Change in fluorescence (FIG. 10) (RAD54 promoter [3]; haploid Y486 transfected with pWDH444, cell extracts, 0.05% MMS) | Change in brightness relative to untransformed cells also exposed to MMS (FIG. 7) (RAD54 promoter [3]; pWDH443 transformed yeast Y485, Y486 and diploid Y485/486) | Change in fluorescence (RAD54 promoter [3]; pWDH443 transformed yeast Y485, Y486 and diploid Y485/486, 0.002% MMS) | Change in fluorescence (RAD54 promoter [3]; pWDH443 transformed yeast Y485, Y486 and diploid Y485/486, 0.01% MMS) | Change in fluorescence (FIG. 10) (RAD54 promoter [3]; untransformed Y486 cells, 0.02% MMS) | Change in fluorescence (FIG. 10) (RAD54 promoter [3]; untransformed Y486 cells, 0.05% MMS) | GFP antibody binding in Western blot (RAD54 promoter [4])
1 | NC(=O)NO [hydroxyurea] | no detectable induction of the GFP reporter gene | – | – | – | – | – | – | – | – | – | – | – | – | –
2 | COS(C)(=O)=O [MMS, Methyl Methane Sulphonate] | – | average = 49 BU | 45 BU and 54 BU and 48 BU | average = 96.7 BU | 100 BU and 97 BU and 93 BU | one | increase in fluorescence | increase in fluorescence | increase in brightness | statistically significant increases in fluorescence | statistically significant increases in fluorescence | no significant effect | no significant effect | considerable increase in GFP antibody binding
3 | COC(=O)Nc1nc2ccc(C(=O)c3cccs3)cc2[nH]1 [nocodazole] | no detectable induction of the GFP reporter gene | – | – | – | – | – | – | – | – | – | – | – | – | –
